The target in this assay is T1, human DGAT2 (Homo sapiens, UniProt Q96PD7).
T1 construct: FLAG (DYKDDDDK); made in house; host or cells: Sf-21 insect cells (BacPAK baculovirus system); membrane fraction used
T1 sequence (Q96PD7 1-388): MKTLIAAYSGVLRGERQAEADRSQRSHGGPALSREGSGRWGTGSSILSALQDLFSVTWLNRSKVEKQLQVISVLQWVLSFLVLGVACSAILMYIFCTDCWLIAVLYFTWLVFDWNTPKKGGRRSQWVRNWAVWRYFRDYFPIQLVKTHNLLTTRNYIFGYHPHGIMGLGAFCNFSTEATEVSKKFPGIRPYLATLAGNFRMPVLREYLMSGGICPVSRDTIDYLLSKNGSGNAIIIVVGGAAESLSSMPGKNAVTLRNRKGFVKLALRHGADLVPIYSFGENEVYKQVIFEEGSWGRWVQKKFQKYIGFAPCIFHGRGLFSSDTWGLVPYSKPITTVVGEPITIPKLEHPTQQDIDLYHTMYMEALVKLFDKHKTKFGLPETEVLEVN
Kind of assay: DGAT2 enzyme activity inhibition, Phospholipid FlashPlate SPA. The note with it: recombinant human DGAT2 membrane protein from Sf-21 cells; inhibition of [14C]-TG production; 37° C. Type of assay: biochemical. The gist of the method:
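Sf-21 membranes expressing recombinant human DGAT2 (2 μg) preincubated with compound (3 nM–10 μM, 1% DMSO) and 50 μM 1,2 sn-oleoyl glycerol, 20 min at 37 °C, then 1 μM [14C]oleoyl-CoA for 15 min. [14C]-TG counted by SPA; inhibition as % of untreated.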

A value given as a limit tells only on which side of the number the result lay.

As a reminder, the IC50 is the concentration at which inhibition is half-maximal.

Turning to `CCOc1ccccc1O[C@@H]1CCCN(c2cncc(Nc3ccc(F)c(-c4cccc(CC(C)(C)C(=O)O)c4)n3)n2)C1` [Example 102, (R)-3-(3-(6-((6-(3-(2-ethoxyphenoxy)piperidin-1-yl)pyrazin-2-yl)amino)-3-fluoropyridin-2-yl)phenyl)-2,2-dimethylpropanoic Acid], the IC50 was found to be 140 nM.
Consider `CCOc1cccnc1O[C@@H]1CCCN(c2cncc(Nc3ccc(F)c(-c4cccc(CC(C)(C)C(=O)O)c4)n3)n2)C1` [Example 103, (R)-3-(3-(6-((6-(3-((3-ethoxypyridin-2-yl)oxy)piperidin-1-yl)pyrazin-2-yl)amino)-3-fluoropyridin-2-yl)phenyl)-2,2-dimethylpropanoic Acid], for which the IC50 stood at 300 nM.
With `CCOc1cccnc1O[C@@H]1CCCN(c2cncc(Nc3nc(-c4cccc(OC(C)(C)C(=O)O)c4)ccc3F)n2)C1` [Example 104, (R)-2-(3-(6-((6-(3-((3-ethoxypyridin-2-yl)oxy)piperidin-1-yl)pyrazin-2-yl)amino)-5-fluoropyridin-2-yl)phenoxy)-2-methylpropanoic Acid], the IC50 amounted to 170 nM.
As for `CCOc1cccnc1O[C@@H]1CCCN(c2cncc(Nc3ccc(F)c(-c4cccc(OC(C)(C)C(=O)O)c4)n3)n2)C1` [Example 105, (R)-2-(3-(6-((6-(3-((3-ethoxypyridin-2-yl)oxy)piperidin-1-yl)pyrazin-2-yl)amino)-3-fluoropyridin-2-yl)phenoxy)-2-methylpropanoic Acid], the figure is 500 nM; as for `CCOc1cccnc1O[C@@H]1CCCN(c2cncc(Nc3ccc(F)c(-c4cc(CC(C)(C)C(=O)O)ccc4F)n3)n2)C1` [Example 106, (R)-3-(3-(6-((6-(3-((3-ethoxypyridin-2-yl)oxy)piperidin-1-yl)pyrazin-2-yl)amino)-3-fluoropyridin-2-yl)-4-fluorophenyl)-2,2-dimethylpropanoic Acid], 490 nM.
In the case of `CCOc1ccccc1O[C@@H]1CCCN(c2cncc(Nc3nc(-c4cc(CC(C)(C)C(=O)O)ccc4F)ccc3F)n2)C1` [Example 107, (R)-3-(3-(6-((6-(3-(2-ethoxyphenoxy)piperidin-1-yl)pyrazin-2-yl)amino)-5-fluoropyridin-2-yl)-4-fluorophenyl)-2,2-dimethylpropanoic Acid], the IC50 was 260 nM.
Consider `CCOc1cccnc1O[C@@H]1CCCN(c2cncc(Nc3nc(-c4cc(CC(C)(C)C(=O)O)ccc4F)ccc3F)n2)C1` [Example 108, (R)-3-(3-(6-((6-(3-((3-ethoxypyridin-2-yl)oxy)piperidin-1-yl)pyrazin-2-yl)amino)-5-fluoropyridin-2-yl)-4-fluorophenyl)-2,2-dimethylpropanoic Acid], for which the half-inhibitory concentration (IC50) came out at 350 nM.
As for `CCOc1ccccc1O[C@@H]1CCCN(c2cncc(Nc3ccc(C(F)(F)F)c(-c4ccc(C(C)(C)C(=O)O)cc4)n3)n2)C1` [Example 109, (R)-2-(4-(6-((6-(3-(2-ethoxyphenoxy)piperidin-1-yl)pyrazin-2-yl)amino)-3-(trifluoromethyl)pyridin-2-yl)phenyl)-2-methylpropanoic Acid], the figure is 1500 nM; as for `CCOc1ccccc1O[C@@H]1CCCN(c2cncc(Nc3cc(C(F)(F)F)cc(-c4cccc(CC(C)(C)C(=O)O)c4)n3)n2)C1` [Example 110, (R)-3-(3-(6-((6-(3-(2-ethoxyphenoxy)piperidin-1-yl)pyrazin-2-yl)amino)-4-(trifluoromethyl)pyridin-2-yl)phenyl)-2,2-dimethylpropanoic Acid], 170 nM.
In the case of `CCOc1ccccc1O[C@@H]1CCCN(c2cncc(Nc3ccc(C)c(-c4cccc(CC(C)(C)C(=O)O)c4)n3)n2)C1` [Example 111, (R)-3-(3-(6-((6-(3-(2-ethoxyphenoxy)piperidin-1-yl)pyrazin-2-yl)amino)-3-methylpyridin-2-yl)phenyl)-2,2-dimethylpropanoic Acid], the IC50 turned out to be 2200 nM.
In the case of `CCOc1ccccc1O[C@@H]1CCCN(c2cncc(Nc3cncc(-c4cccc(CC(C)(C)C(=O)O)c4)n3)n2)C1` [Example 112, (R)-3-(3-(6-((6-(3-(2-ethoxyphenoxy)piperidin-1-yl)pyrazin-2-yl)amino)pyrazin-2-yl)phenyl)-2,2-dimethylpropanoic Acid], the IC50 stood at 200 nM.
As to `CCOc1ccccc1O[C@@H]1CCCN(c2cncc(Nc3ncc(C(=O)O)cn3)n2)C1` [Example 114, (R)-2-((6-(3-(2-ethoxyphenoxy)piperidin-1-yl)pyrazin-2-yl)amino)pyrimidine-5-carboxylic Acid], the IC50 is more than 10000 nM.
As to `CCOc1cccnc1O[C@@H]1CCCN(c2ccnc(Nc3nccc(C(C)(C)C(=O)O)n3)n2)C1` [Example 116], the IC50 came to 410 nM.
For `CCOc1ccccc1O[C@@H]1CCCN(c2cncc(Nc3nccc(N4CCC[C@H]4C(=O)O)n3)n2)C1` [Example 117, (2-((6-((R)-3-(2-ethoxyphenoxy)piperidin-1-yl)pyrazin-2-yl)amino)pyrimidin-4-yl)-L-proline] the value was more than 10000 nM; for `CCOc1ccccc1O[C@@H]1CCCN(c2cncc(Nc3nccc(N4CCC(C(=O)O)C4)n3)n2)C1` (stereo partly drawn) [Example 118, 1-(2-((6-((R)-3-(2-ethoxyphenoxy)piperidin-1-yl)pyrazin-2-yl)amino)pyrimidin-4-yl)pyrrolidine-3-carboxylic Acid], 2000 nM; for `CCOc1ccccc1O[C@@H]1CCCN(c2cncc(Nc3nccc(N4CCCC(C(=O)O)C4)n3)n2)C1` (stereo partly drawn) [Example 120, 1-(2-((6-((R)-3-(2-ethoxyphenoxy)piperidin-1-yl)pyrazin-2-yl)amino)pyrimidin-4-yl)piperidine-3-carboxylic Acid], 890 nM.
For `CCOc1ccccc1O[C@@H]1CCCN(c2cncc(Nc3nccc(N4CCC[C@@H](C(=O)O)C4)n3)n2)C1` [Example 121, (R)-1-(2-((6-((R)-3-(2-ethoxyphenoxy)piperidin-1-yl)pyrazin-2-yl)amino)pyrimidin-4-yl)piperidine-3-carboxylic Acid] the value was 590 nM; for `CCOc1ccccc1O[C@@H]1CCCN(c2cncc(Nc3nccc(N4CCCC(C)(C(=O)O)C4)n3)n2)C1` (stereo partly drawn) [Example 122, 1-(2-((6-((R)-3-(2-ethoxyphenoxy)piperidin-1-yl)pyrazin-2-yl)amino)pyrimidin-4-yl)-3-methylpiperidine-3-carboxylic Acid], 6100 nM; for `CCOc1ccccc1O[C@@H]1CCCN(c2cncc(Nc3nccc(N4CCC(C(=O)O)CC4)n3)n2)C1` [Example 123, (R)-1-(2-((6-(3-(2-ethoxyphenoxy)piperidin-1-yl)pyrazin-2-yl)amino)pyrimidin-4-yl)piperidine-4-carboxylic Acid], 5500 nM.
Regarding `CCOc1ccccc1O[C@@H]1CCCN(c2cncc(Nc3nccc(C4CC5CC4CC5C(=O)O)n3)n2)C1` (stereo partly drawn) [Example 124, 5-(2-((6-((R)-3-(2-ethoxyphenoxy)piperidin-1-yl)pyrazin-2-yl)amino)pyrimidin-4-yl)bicyclo[2.2.1]heptane-2-carboxylic Acid], the IC50 was found to be 340 nM.
As for `CCOc1ccccc1O[C@@H]1CCCN(c2cncc(Nc3nccc(N4CCC(CC(=O)O)CC4)n3)n2)C1` [Example 125, (R)-2-(1-(2-((6-(3-(2-ethoxyphenoxy)piperidin-1-yl)pyrazin-2-yl)amino)pyrimidin-4-yl)piperidin-4-yl)acetic Acid], the figure is 1800 nM; as for `CCOc1ccccc1O[C@@H]1CCCN(c2cncc(Nc3nccc(N4CCC(C(C)(C)C(=O)O)CC4)n3)n2)C1` [Example 126, (R)-2-(1-(2-((6-(3-(2-ethoxyphenoxy)piperidin-1-yl)pyrazin-2-yl)amino)pyrimidin-4-yl)piperidin-4-yl)-2-methylpropanoic Acid], 800 nM; as for `CCOc1ccccc1O[C@@H]1CCCN(c2cncc(Nc3nccc(N4CCN(CC(=O)O)CC4)n3)n2)C1` [Example 127, (R)-2-(4-(2-((6-(3-(2-ethoxyphenoxy)piperidin-1-yl)pyrazin-2-yl)amino)pyrimidin-4-yl)piperazin-1-yl)acetic Acid], 2900 nM.
Regarding `CCOc1ccccc1O[C@@H]1CCCN(c2cncc(Nc3nccc(N4CCC[C@@H](CC(=O)O)C4)n3)n2)C1` [Example 128, 2-((S)-1-(2-((6-((R)-3-(2-ethoxyphenoxy)piperidin-1-yl)pyrazin-2-yl)amino)pyrimidin-4-yl)piperidin-3-yl)acetic Acid], the IC50 was found to be 160 nM.
`CCOc1ccccc1O[C@@H]1CCCN(c2cncc(Nc3nccc(N4CCC[C@@H](/C=C/C(=O)O)C4)n3)n2)C1` [Example 129, (E)-3-((S)-1-(2-((6-((R)-3-(2-ethoxyphenoxy)piperidin-1-yl)pyrazin-2-yl)amino)pyrimidin-4-yl)piperidin-3-yl)acrylic Acid]: the IC50 worked out at 800 nM.
For `CCOc1ccccc1O[C@@H]1CCCN(c2cncc(Nc3nccc(N4CCC[C@@H](CCC(=O)O)C4)n3)n2)C1` [Example 130, 3-((S)-1-(2-((6-((R)-3-(2-ethoxyphenoxy)piperidin-1-yl)pyrazin-2-yl)amino)pyrimidin-4-yl)piperidin-3-yl)propanoic Acid] the value was 2100 nM; for `CCOc1ccccc1O[C@@H]1CCCN(c2cncc(Nc3nccc(N4CCC[C@H](OCC(=O)O)C4)n3)n2)C1` [Example 131, 2-(((S)-1-(2-((6-((R)-3-(2-ethoxyphenoxy)piperidin-1-yl)pyrazin-2-yl)amino)pyrimidin-4-yl)piperidin-3-yl)oxy)acetic Acid], more than 10000 nM.

(Values after patent US12630528B2, “Amino aryl derivative useful as diacylglycerol acyltransferase 2 inhibitor and use thereof” (LG CHEM, LTD., priority 2019, dated 2026).)
